Data reported in US11136317B2, “NADPH oxidase 4 inhibitors” (ACTELION PHARMACEUTICALS LTD, priority 2015, dated 2021).

What follows are molecules tested against T1, human NOX4 (Homo sapiens, UniProt Q9NPH5) (assay: Amplex Red activity assay (cellular H2O2 formation in hNOX4 T-REx-293 cells)). Settings: tet-induced 24 h, extracellular H2O2 by Amplex Red, 60 min 25° C., geometric mean if determined several times.
T1 construct: The full-length human NOX4 (NM_016931.3) transcript was cloned; expressed in transfected cells
T1 sequence (Q9NPH5 1-578): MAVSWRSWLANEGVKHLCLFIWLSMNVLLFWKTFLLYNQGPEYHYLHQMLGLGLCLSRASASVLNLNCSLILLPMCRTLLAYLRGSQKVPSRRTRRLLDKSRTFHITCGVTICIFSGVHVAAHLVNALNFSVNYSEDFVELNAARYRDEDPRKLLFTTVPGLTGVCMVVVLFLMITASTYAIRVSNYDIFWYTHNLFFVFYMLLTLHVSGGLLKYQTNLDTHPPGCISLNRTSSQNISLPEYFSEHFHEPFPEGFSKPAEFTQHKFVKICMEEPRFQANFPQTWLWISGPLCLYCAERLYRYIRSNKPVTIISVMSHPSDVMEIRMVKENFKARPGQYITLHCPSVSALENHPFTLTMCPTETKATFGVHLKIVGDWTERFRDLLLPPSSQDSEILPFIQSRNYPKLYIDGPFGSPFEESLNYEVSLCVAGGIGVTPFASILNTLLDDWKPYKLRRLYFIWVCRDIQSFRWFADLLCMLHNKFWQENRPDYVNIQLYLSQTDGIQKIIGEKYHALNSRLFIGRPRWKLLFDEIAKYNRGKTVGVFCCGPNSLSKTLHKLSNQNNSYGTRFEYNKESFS
T1 sequence (P13498 1-195 partner): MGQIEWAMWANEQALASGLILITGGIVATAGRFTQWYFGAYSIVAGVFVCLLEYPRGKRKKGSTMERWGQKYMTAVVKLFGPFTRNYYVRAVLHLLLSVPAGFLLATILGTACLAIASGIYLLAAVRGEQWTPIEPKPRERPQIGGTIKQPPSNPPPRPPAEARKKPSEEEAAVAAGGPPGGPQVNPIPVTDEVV
Format: cell-based
Method: The nucleotide sequence and the amino acid sequence for the human NOX4 (Entrez Gene ID 50507) is known in the art and are published. The potency and efficacy of the compounds of Formula (I) are assessed for their potential to inhibit the formation of ROS in a cellular assay.
The full-length human NOX4 (NM_016931.3) transcript was cloned into the pDONR™221 vector (Life Technologies™) in order to generate, by site-specific integration according to the recommendation of the manufacturer (Life Technologies™), a recombinant pJTI™ R4 DEST CMV-TO vector containing the NOX4 coding information controlled by tetracycline (tet) responsive tet-on cytomegalovirus promoter (hNOX4 pDEST).
Modified human embryonic kidney cells overexpressing a tet receptor (Jump-In™ T-REx™ HEK293; Life Technologies™) were transfected with the NOX4-containing tet-on vector (hNOX4 pDEST) to generate a stable recombinant cell pool (hNOX4 T-REx-293). hNOX4 T-REx-293 cells were cultured in DMEM containing 4.5 g/L glucose supplemented with 10% fetal calf serum, penicillin (100 U/mL), streptomycin (100 μg/mL), geneticin (1 mg/mL), and blasticidin (5 μg/mL) at 37° C. in air with 5% CO2. Human Nox4 expression was induced with tet (1 μg/mL) for 24 h and extracellular H2O2 was quantified using the Amplex Red reagent (Life Technologies™).
Compounds were prepared as 10 mM stock solution in DMSO vehicle, then diluted in 384-well plates using DMSO followed by a transfer of the dilutions into the assay plate. As a control, diphenylene iodonium was included at a final concentration of 10 μM. Compounds were tested at 10 concentrations in the range from 50 μM highest to 100 nM lowest.
Cellular H2O2 formation was measured using the Amplex Red reagent. […] Cells were seeded into 384-well clear bottom plates at a density of 20 000 cells per well in presence or absence of compounds. […] All wells contained 1.25% of DMSO. The plates were kept at 25° C. for 60 min. The amount of produced resorufin was detected with the Synergy™ Mx microplate reader (BioTek) with excitation and emission wavelengths set to 550 nm and 600 nm, respectively. Fluorescence was measured for each well and the fluorescence at 600 nm wavelength was compared to the fluorescence of the vehicle in place of compound. Inhibitory activities of example compounds were determined by calculating the IC50 value (the concentration of compound needed to inhibit 50% of the enzyme activity). The calculated IC50 values may fluctuate depending on the daily cellular assay performance. Fluctuations of this kind are known to those skilled in the art.

IC50 [nM] | Compound
702 | O=C(Nc1ccc2oc(N3CCC3c3ccccc3)nc2c1)c1ccc2c(c1)CCO2 (racemic) [Example 62, rac-2,3-Dihydro-benzofuran-5-carboxylic acid [2-(2-phenyl-azetidin-1-yl)-benzooxazol-5-yl]-amide]
1090 | O=C(Nc1ccc2sc(N3CCC3c3ccccc3)nc2c1)c1ccc2c(c1)CCO2 (racemic) [Example 111, rac-2,3-Dihydro-benzofuran-5-carboxylic acid [2-(2-phenyl-azetidin-1-yl)-benzothiazol-5-yl]-amide]
639 | O=C(Nc1ccc2oc(N3CCCCC3)nc2c1)c1ccc2c(c1)CCO2 [Example 2, 2,3-Dihydro-benzofuran-5-carboxylic acid (2-piperidin-1-yl-benzooxazol-5-yl)-amide]
899 | O=C(Nc1ccc2oc(N3CCCC3)nc2c1)c1ccc2c(c1)CCO2 [Example 3, 2,3-Dihydro-benzofuran-5-carboxylic acid (2-pyrrolidin-1-yl-benzooxazol-5-yl)-amide]
967 | CN1CCN(c2nc3cc(NC(=O)c4ccc5c(c4)CCO5)ccc3o2)CC1 [Example 4, 2,3-Dihydro-benzofuran-5-carboxylic acid [2-(4-methyl-piperazin-1-yl)-benzooxazol-5-yl]-amide]
627 | O=C(Nc1ccc2oc(N3CCOCC3)nc2c1)c1ccc2c(c1)CCO2 [Example 5, 2,3-Dihydro-benzofuran-5-carboxylic acid (2-morpholin-4-yl-benzooxazol-5-yl)-amide]
559 | CCN(CC)c1nc2cc(NC(=O)c3ccc4c(c3)CCO4)ccc2o1 [Example 6, 2,3-Dihydro-benzofuran-5-carboxylic acid (2-diethylamino-benzooxazol-5-yl)-amide]
358 | O=C(Nc1ccc2oc(N3CCC(F)(F)CC3)nc2c1)c1ccc2c(c1)CCO2 [Example 7, 2,3-Dihydro-benzofuran-5-carboxylic acid [2-(4,4-difluoro-piperidin-1-yl)-benzooxazol-5-yl]-amide]
1890 | O=C(Nc1ccc2oc(N3CC(F)(F)C3)nc2c1)c1ccc2c(c1)CCO2 [Example 8, 2,3-Dihydro-benzofuran-5-carboxylic acid [2-(3,3-difluoro-azetidin-1-yl)-benzooxazol-5-yl]-amide]
573 | O=C(Nc1ccc2oc(N3CCC(F)(F)C3)nc2c1)c1ccc2c(c1)CCO2 [Example 9, 2,3-Dihydro-benzofuran-5-carboxylic acid [2-(3,3-difluoro-pyrrolidin-1-yl)-benzooxazol-5-yl]-amide]
711 | COC1CCN(c2nc3cc(NC(=O)c4ccc5c(c4)CCO5)ccc3o2)C1 (centres unmarked) [Example 10, 2,3-Dihydro-benzofuran-5-carboxylic acid [2-(3-methoxy-pyrrolidin-1-yl)-benzooxazol-5-yl]-amide]
358 | COC1CCN(c2nc3cc(NC(=O)c4ccc5c(c4)CCO5)ccc3o2)CC1 [Example 11, 2,3-Dihydro-benzofuran-5-carboxylic acid [2-(4-methoxy-piperidin-1-yl)-benzooxazol-5-yl]-amide]
688 | CC1(O)CN(c2nc3cc(NC(=O)c4ccc5c(c4)CCO5)ccc3o2)C1 [Example 12, 2,3-Dihydro-benzofuran-5-carboxylic acid [2-(3-hydroxy-3-methyl-azetidin-1-yl)-benzooxazol-5-yl]-amide]
5360 | CN(C)CCN(C)c1nc2cc(NC(=O)c3ccc4c(c3)CCO4)ccc2o1 [Example 13, 2,3-Dihydro-benzofuran-5-carboxylic acid {2-[(2-dimethylamino-ethyl)-methyl-amino]-benzooxazol-5-yl}-amide; compound with formic acid]
1700 | CN(C)C1CCN(c2nc3cc(NC(=O)c4ccc5c(c4)CCO5)ccc3o2)CC1 [Example 14, 2,3-Dihydro-benzofuran-5-carboxylic acid [2-(4-dimethylamino-piperidin-1-yl)-benzooxazol-5-yl]-amide; compound with formic acid]
405 | O=C(Nc1ccc2oc(N3CCC34COC4)nc2c1)c1ccc2c(c1)CCO2 [Example 15, 2,3-Dihydro-benzofuran-5-carboxylic acid [2-(6-oxa-1-aza-spiro[3.3]hept-1-yl)-benzooxazol-5-yl]-amide]
389 | O=C(Nc1ccc2oc(N3CCCC(F)(F)C3)nc2c1)c1ccc2c(c1)CCO2 [Example 16, 2,3-Dihydro-benzofuran-5-carboxylic acid [2-(3,3-difluoro-pipeiidin-1-yl)-benzooxazol-5-yl]-amide]
2300 | O=C(Nc1ccc2oc(N3CC(N4CCOCC4)C3)nc2c1)c1ccc2c(c1)CCO2 [Example 17, 2,3-Dihydro-benzofuran-5-carboxylic acid [2-(3-morpholin-4-yl-azetidin-1-yl)-benzooxazol-5-yl]-amide]
568 | CN(c1nc2cc(NC(=O)c3ccc4c(c3)CCO4)ccc2o1)C1(C)COC1 [Example 18, 2,3-Dihydro-benzofuran-5-carboxylic acid {2-[methyl-(3-methyl-oxetan-3-yl)-amino]-benzooxazol-5-yl}-amide]
2890 | O=C(Nc1ccc2oc(N3CC(N4CCS(=O)(=O)CC4)C3)nc2c1)c1ccc2c(c1)CCO2 [Example 19, 2,3-Dihydro-benzofuran-5-carboxylic acid {2-[3-(1,1-dioxo-1l6-thiomoipholin-4-yl)-azetidin-1-yl]-benzooxazol-5-yl}-amide]
1400 | CC1(O)CN(C2CN(c3nc4cc(NC(=O)c5ccc6c(c5)CCO6)ccc4o3)C2)C1 [Example 20, 2,3-Dihydro-benzofuran-5-carboxylic acid [2-(3-hydroxy-3-methyl-[1,3′]biazetidinyl-1′-yl)-benzooxazol-5-yl]-amide]
1610 | O=C(Nc1ccc2oc(N3CC4(CCO4)C3)nc2c1)c1ccc2c(c1)CCO2 [Example 21, 2,3-Dihydro-benzofuran-5-carboxylic acid [2-(1-oxa-6-aza-spiro[3.3]hept-6-yl)-benzooxazol-5-yl]-amide]
505 | O=C(Nc1ccc2oc(N3CCC4(COC4)C3)nc2c1)c1ccc2c(c1)CCO2 [Example 22, 2,3-Dihydro-benzofuran-5-carboxylic acid [2-(2-oxa-6-aza-spiro[3.4]oct-6-yl)-benzooxazol-5-yl]-amide]
1470 | O=C(Nc1ccc2oc(N3CC4(CCCOC4)C3)nc2c1)c1ccc2c(c1)CCO2 [Example 23, 2,3-Dihydro-benzofuran-5-carboxylic acid [2-(6-oxa-2-aza-spiro[3.5]non-2-yl)-benzooxazol-5-yl]-amide]
352 | O=C(Nc1ccc2oc(N3CCCC34COC4)nc2c1)c1ccc2c(c1)CCO2 [Example 24, 2,3-Dihydro-benzofuran-5-carboxylic acid [2-(2-oxa-5-aza-spiro[3.4]oct-5-yl)-benzooxazol-5-yl]-amide]
804 | O=C(Nc1ccc2oc(N3CCCC4(CCO4)C3)nc2c1)c1ccc2c(c1)CCO2 (centres unmarked) [Example 25, 2,3-Dihydro-benzofuran-5-carboxylic acid [2-(1-oxa-6-aza-spiro[3.5]non-6-yl)-benzooxazol-5-yl]-amide]
